Legend:
Experiment in all cases: relative viability (nuclei count vs DMSO), 5 days (fraction); higher = more cells survive
Axitinib + Dasatinib = compound: CNC(=O)c1ccccc1Sc1ccc2c(/C=C/c3ccccn3)n[nH]c2c1 [Axitinib] + Cc1nc(Nc2ncc(C(=O)Nc3c(C)cccc3Cl)s2)cc(N2CCN(CCO)CC2)n1 [Dasatinib] (partner 0.075 µM)
Summary of the method: (§1)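 Lung cancer cell lines in 1536-well plates got either a single drug or a fixed anchor-drug dose together with five library-drug doses (not always all listed) in √10 steps, by pin tool, on the day after seeding. Nuclei were counted after 5 days, and relative viability is the treated-to-vehicle ratio of nuclei counts. Values are medians of duplicate plates.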

[1] = compound: CC1=CC=C(C=C1)C(=O)CN2C3=C(CCCC3)SC2=N [Pifithrin_alpha] + CC(C)C[C@H](NC(=O)[C@H](Cc1ccccc1)NC(=O)c1cnccn1)B(O)O [Bortezomib] (partner 0.002 µM)
Summary of the method: as §1

Axitinib + Crizotinib = compound: CNC(=O)c1ccccc1Sc1ccc2c(/C=C/c3ccccn3)n[nH]c2c1 [Axitinib] + C[C@@H](Oc1cc(-c2cnn(C3CCNCC3)c2)cnc1N)c1c(Cl)ccc(F)c1Cl [Crizotinib] (partner 1 µM)
Summary of the method: as §1

Axitinib + Bortezomib = compound: CNC(=O)c1ccccc1Sc1ccc2c(/C=C/c3ccccn3)n[nH]c2c1 [Axitinib] + CC(C)C[C@H](NC(=O)[C@H](Cc1ccccc1)NC(=O)c1cnccn1)B(O)O [Bortezomib] (partner 0.002 µM)
Summary of the method: as §1

Row | Cell Line | relative viability (Axitinib + Dasatinib; first compound 0.005 µM) | relative viability (Axitinib + Dasatinib; first compound 0.01581 µM) | relative viability (Axitinib + Dasatinib; first compound 0.05 µM) | relative viability (Axitinib + Dasatinib; first compound 0.1581 µM) | relative viability (Axitinib + Dasatinib; first compound 0.5 µM) | relative viability ([1]; first compound 1 µM) | relative viability ([1]; first compound 3.162 µM) | relative viability ([1]; first compound 10 µM) | relative viability ([1]; first compound 31.62 µM) | relative viability ([1]; first compound 100 µM) | relative viability (Axitinib + Crizotinib; first compound 0.005 µM) | relative viability (Axitinib + Crizotinib; first compound 0.01581 µM) | relative viability (Axitinib + Crizotinib; first compound 0.05 µM) | relative viability (Axitinib + Crizotinib; first compound 0.1581 µM) | relative viability (Axitinib + Crizotinib; first compound 0.5 µM) | relative viability (Axitinib + Bortezomib; first compound 0.005 µM) | relative viability (Axitinib + Bortezomib; first compound 0.01581 µM) | relative viability (Axitinib + Bortezomib; first compound 0.05 µM) | relative viability (Axitinib + Bortezomib; first compound 0.1581 µM) | relative viability (Axitinib + Bortezomib; first compound 0.5 µM)
1 | NCI-H322M | 0.253 | 0.231 | 0.239 | 0.259 | 0.246 | 1.19 | 1.07 | 1.29 | 1.26 | 1.03 | 0.889 | 0.828 | 0.926 | 0.888 | 0.889 | 1.34 | 1.07 | 1.12 | 1.2 | 1.12
2 | NCI-H1651 | 0.482 | 0.396 | 0.409 | 0.404 | 0.502 | 0.857 | 0.929 | 0.916 | 0.88 | 1.02 | 0.904 | 0.858 | 0.707 | 0.842 | 0.861 | 0.926 | 0.942 | 0.934 | 0.889 | 0.857
3 | NCI-H1437 | 0.396 | 0.388 | 0.448 | 0.388 | 0.442 | 0.567 | 0.363 | 0.401 | 0.319 | 0.281 | 1.07 | 0.927 | 0.863 | 0.934 | 0.93 | 0.515 | 0.542 | 0.55 | 0.446 | 0.589
4 | NCI-H1355 | 0.723 | 0.766 | 0.779 | 0.757 | 0.642 | 1.17 | 1.04 | 0.954 | 0.789 | 1.03 | 1.13 | 1.06 | 1.1 | 0.948 | 1.29 | 1.26 | 1.13 | 1.32 | 1.17 | 1.15
5 | NCI-H1755 | 0.444 | 0.436 | 0.479 | 0.439 | 0.388 | 0.894 | 0.907 | 0.866 | 0.862 | 0.971 | 0.955 | 0.891 | 0.872 | 0.863 | 0.921 | 0.973 | 0.973 | 0.932 | 0.971 | 0.967
6 | SK-LU-1 | 0.163 | 0.186 | 0.171 | 0.181 | 0.215 | 0.891 | 1.4 | 1.41 | 0.574 | 1.39 | 0.999 | 1.12 | 1.11 | 1.02 | 1.1 | 1.29 | 1.2 | 1.43 | 1.08 | 1.08
7 | NCI-H2126 | 0.625 | 0.635 | 0.64 | 0.565 | 0.578 | 1.11 | 1.09 | 0.925 | 0.896 | 0.94 | 1.08 | 0.998 | 0.928 | 0.97 | 1.02 | 1.15 | 1.05 | 1.07 | 1.04 | 1.11
8 | HOP-62 | 0.693 | 0.704 | 0.77 | 0.684 | 0.726 | 0.92 | 0.983 | 0.955 | 0.514 | 1.14 | 0.941 | 1.1 | 0.93 | 0.981 | 0.929 | 1.02 | 0.776 | 0.668 | 0.891 | 1.21
9 | NCI-H2347 | 0.304 | 0.324 | 0.288 | 0.308 | 0.323 | 0.695 | – | 0.855 | 0.814 | 0.874 | 0.644 | 1.04 | 0.739 | 0.743 | 0.85 | 1.26 | 0.752 | 1.36 | 0.798 | 0.692
10 | HCC-15 | 0.658 | 0.673 | 0.658 | 0.56 | 0.622 | 1.1 | 1.11 | 0.919 | 0.772 | 1.1 | 0.907 | 0.84 | 0.793 | 0.696 | 0.825 | 1.08 | 0.995 | 1.01 | 0.988 | 1.06
11 | PC-14 | 0.247 | 0.227 | 0.297 | 0.257 | 0.314 | 0.821 | 0.829 | 0.964 | 0.888 | 0.882 | 0.954 | 0.959 | 0.849 | 0.937 | 0.984 | 1.04 | 0.894 | 0.81 | 0.826 | 1.08
12 | NCI-H2085 | 0.237 | 0.22 | 0.216 | 0.247 | 0.199 | 0.993 | 1.07 | 1.01 | 0.878 | 1 | 0.799 | 0.902 | 0.794 | 0.718 | 0.874 | 1.15 | 0.966 | 1.06 | 1.04 | 1.05
13 | HCC-827 | 0.302 | 0.209 | 0.356 | 0.398 | 0.274 | 0.961 | 1.14 | 0.987 | 0.903 | 0.981 | 0.882 | 0.905 | 0.914 | 0.886 | 0.943 | 1.11 | 1.06 | 1.04 | 1.02 | 1.15
14 | ChaGo-K-1 | 0.611 | 0.552 | 0.583 | 0.423 | 0.611 | 0.962 | 1.21 | 0.944 | 0.711 | 0.986 | 1.1 | 1.17 | 1.13 | 1.05 | 1.15 | 0.953 | 0.919 | 1.13 | 1.05 | 1.16
15 | H3255 | 0.351 | 0.341 | 0.359 | 0.38 | 0.373 | 0.584 | 0.76 | 0.711 | 0.416 | 0.421 | 0.975 | 0.79 | 0.764 | 0.77 | 1 | 0.672 | 0.778 | 0.856 | 0.962 | 0.6
16 | LOU-NH91 | 0.569 | 0.434 | 0.61 | 0.558 | 0.568 | 0.409 | 0.475 | 0.445 | 0.414 | 0.503 | 0.765 | 0.641 | 0.773 | 0.697 | 0.78 | 0.517 | 0.537 | 0.43 | 0.475 | 0.57

— the supplement of paper PMC10307832
